Laboratory results published in patent publication US20040019066A1, “Methionine salvage pathway in bacillus” (priority 2002, published 2004).

Key:
B. subtilis [1] = assay: Growth in the presence of trifluoromethylthioribose (3F-MTR), resistance phenotype; assay type: cell-based, Bacillus subtilis; details: inactivation of mtnK, mtnS, mtnY and mtnW
From the text: Mutants were obtained by transformation of a wild type strain with a random transposon library, selecting for growth in the presence of trifluoromethylthioribose (3F-MTR). The mutants were subsequently tested for growth on plates lacking sulfur source but supplemented with MTR: only those that could not grow were retained for further study. In order to ascertain that the resistant phenotype was not coming from secondary mutations but was directly related to the transposon insert, the chromosome DNA was extracted from each putative mutant and back transformed into a wild type strain selecting for the transposon antibiotic marker. The 3F-MTR and MTR phenotypes were subsequently tested and only those mutants that passed the test were retained. The insertion positions of the transposons were then sequenced. […]
(§1) Bacterial strains and plasmids, and growth media: E. coli and B. subtilis strains as well as plasmids used in this work are listed in Table 3. […] In the latter case, 10 [μl of the sulfur source under investigation was applicated onto paper discs (MTR, 200 mM stock solution and methionine, 100 mM stock solution) deposited at the center of the plate, after bacteria had been uniformly spread at the surface of the plate, and growth was measured around the disK. […] The optical density (OD) of bacterial cultures was measured at 600 nm. […]

B. subtilis [2] = details: if the methyl sulfur moiety of the molecule is recycled; reference [13]; cited from earlier work
[3] = system: Strain BSHP7014 (mtnW:lacZ amyE::pxyl mtnXYZ); assay: Toxicity of MTR for BSHP7014 strain (paper disc on ED1 minimal medium plates); assay type: cell-based, Bacillus subtilis; details: inferred from MTR toxicity in mtnU or mtnW mutants with functional mtnY
Procedure: Toxicity of MTR for BSHP7014 strain. Strain BSHP7014 (mtnW:lacZ amyE::pxyl mtnXYZ) was grown on ED1 minimal medium plates in the presence of sulfate as sulfur source (panel A) or in the absence of any added sulfur source (agar as sole sulfur source, panel B). Xylose was added to the medium in order to trigger the expression of mtnXYZ from the pxyl promoter, 10 μl of methionine (met) or MTR was adsorbed on paper discs and plates were incubated over-night at 37° C. Methionine was used as a control for growth and/or toxicity of the sulfur source.
Two genes in the pathway are dispensable, mtnV and mtnX. The first one encodes a transaminase of which there are nine putative paralogs in the genome of B. subtilis (YwfG, AlaT, AspB, PatA, YhdR, YdfD, PatB, YisV, and HisC). In the same way, MtnX (YkrX) is a member of the phosphatase family pfam00702 ([12], FIG. 6), and therefore of a ubiquitous class of hydrolases (several phosphatase genes, in particular are present in the genome of B. subtilis). This is likely to account for the lack of phenotype under our growth conditions. […] In contrast, we discovered that MTR is toxic when the distal genes are present (when used as sole sulfur source or in the presence of sulfate, see FIG. 7). Because of the weak phenotype of a mtnZ mutant and the absence of phenotype of a mtnX mutant, we can be confident that MtnY acts before MtnW (this is a common feature in operons, where it is generally observed that the more distal genes code for proteins acting in the more proximate steps of the pathway).
as §1, with “3. E. coli TG1 and XL1-Blue were used for cloning experiments (TG1 for single cross-over recombination and XL1-Blue for double cross-over recombination). Despite the fact that there are no public regulations yet in this domain in China, all experiments were performed in accordance with the European regulation requirements concerning the contained use of Genetically Modified Organisms of Group-I (French agreement N^o 2735).” for “3.”

Compound: O=C[C@H](O)[C@H](O)[C@H](O)CSC(F)(F)F [3F-MTR, 5-thio-5-5-S-trifluoromethyl-D-ribose]
- Phenotype towards 3F-MTR (B. subtilis [1]): resistance
- Toxicity of the MTR analog (B. subtilis [2]): toxic

Compound: CSCC(O)C(O)C(=O)COP(=O)(O)O (stereo not drawn) [5-thiomethylribulose-1-phosphate]
- Toxicity to the cells [3]: toxic
